In brackets after ≈: the same amount, converted by molar mass.

As usually defined, the MIC is the smallest concentration in the dilution series that meets the test's criterion for growth inhibition.

In test [1] the test system is Klebsiella pneumoniae. As to the kind of experiment: Antimicrobial activity against Klebsiella pneumoniae isolate H-1406 expressing VIM-1 and KPC-2 genes by microdilution method. The format is functional.
Test [2] relates to Klebsiella pneumoniae. As to the kind of experiment: Antimicrobial activity against Klebsiella pneumoniae isolate A-1797 expressing VIM-1 and KPC-2 genes by microdilution method. Type of test: functional. On the technique in general: Broth dilution looks for growth in wells or tubes with falling amounts of substance.
Test [3] relates to Klebsiella pneumoniae. Briefly: Antimicrobial activity against Klebsiella pneumoniae isolate T-1780 expressing VIM-1 and KPC-2 genes by microdilution method. Type of test: functional.
The subject of test [4] is Klebsiella pneumoniae. Briefly: Antimicrobial activity against Klebsiella pneumoniae isolate A-1760 expressing VIM-1 and KPC-2 genes by microdilution method. Type of test: functional.
Test [5] relates to Klebsiella pneumoniae. Briefly: Antimicrobial activity against Klebsiella pneumoniae isolate T-1504 expressing VIM-1 and KPC-2 genes by microdilution method. The format is functional.
Test [6] has as its system Klebsiella pneumoniae. As to the kind of experiment: Antimicrobial activity against Klebsiella pneumoniae isolate H-1406 expressing VIM-1 and KPC-2 genes by microdilution method in presence of beta-lactamase inhibitor clavulanic acid. The format is functional.
Test [7] deals with Klebsiella pneumoniae. Briefly: Antimicrobial activity against Klebsiella pneumoniae isolate A-1797 expressing VIM-1 and KPC-2 genes by microdilution method in presence of beta-lactamase inhibitor clavulanic acid. Type of test: functional.
For test [8], the system named is Klebsiella pneumoniae. As to the kind of experiment: Antimicrobial activity against Klebsiella pneumoniae isolate T-1780 expressing VIM-1 and KPC-2 genes by microdilution method in presence of beta-lactamase inhibitor clavulanic acid. The format is functional.
For test [9], the system named is Klebsiella pneumoniae. As to the kind of experiment: Antimicrobial activity against Klebsiella pneumoniae isolate A-1760 expressing VIM-1 and KPC-2 genes by microdilution method in presence of beta-lactamase inhibitor clavulanic acid. The format is functional.
The test system of test [10] is Klebsiella pneumoniae. Briefly: Antimicrobial activity against Klebsiella pneumoniae isolate T-1504 expressing VIM-1 and KPC-2 genes by microdilution method in presence of beta-lactamase inhibitor clavulanic acid. The format is functional.
Test [11] has as its target Metallo-beta-lactamase (Klebsiella pneumoniae) (UniProt Q5GN09). Briefly: Activity of VIM-1 in Klebsiella pneumoniae isolate H-1406.
Test [12] has the same target. As to the kind of experiment: Activity of VIM-1 in Klebsiella pneumoniae isolate A-1797.
Test [13] shares this target. Briefly: Activity of VIM-1 in Klebsiella pneumoniae isolate T-1780.
The target is the same in test [14]. Briefly: Activity of VIM-1 in Klebsiella pneumoniae isolate A-1760.
For test [15], the target named is Carbapenem-hydrolyzing beta-lactamase KPC (Klebsiella pneumoniae) (UniProt Q9F663). Briefly: Activity of KPC-2 in Klebsiella pneumoniae isolate T-1504.
The target is the same in test [16]. As to the kind of experiment: Activity of KPC-2 in Klebsiella pneumoniae isolate H-1406.
Test [17] has the same target. Briefly: Activity of KPC-2 in Klebsiella pneumoniae isolate T-1780.
Test [18] has as its target Metallo-beta-lactamase (Klebsiella pneumoniae) (UniProt Q5GN09). As to the kind of experiment: Activity of VIM-1 in Klebsiella pneumoniae isolate H-1406 assessed as compound hydrolysis in presence of EDTA. Set-up: scale not given: the % may be the effect or the level left.
For test [19] the target is unchanged. As to the kind of experiment: Activity of VIM-1 in Klebsiella pneumoniae isolate A-1797 assessed as compound hydrolysis in presence of EDTA. Set-up: scale not given: the % may be the effect or the level left.
For test [20] the target is unchanged. Briefly: Activity of VIM-1 in Klebsiella pneumoniae isolate T-1780 assessed as compound hydrolysis in presence of EDTA. Also on record: scale not given: the % may be the effect or the level left.
Test [21] has the same target. Briefly: Activity of VIM-1 in Klebsiella pneumoniae isolate A-1760 assessed as compound hydrolysis in presence of EDTA. Set-up: scale not given: the % may be the effect or the level left.
Test [22] addresses Carbapenem-hydrolyzing beta-lactamase KPC (Klebsiella pneumoniae) (UniProt Q9F663). As to the kind of experiment: Activity of KPC-2 in Klebsiella pneumoniae isolate T-1504 assessed as compound hydrolysis in presence of EDTA. Also on record: scale not given: the % may be the effect or the level left.
For test [23] the target is unchanged. As to the kind of experiment: Activity of KPC-2 in Klebsiella pneumoniae isolate H-1406 assessed as compound hydrolysis in presence of EDTA. Set-up: scale not given: the % may be the effect or the level left.
Test [24] has the same target. As to the kind of experiment: Activity of KPC-2 in Klebsiella pneumoniae isolate T-1780 assessed as compound hydrolysis in presence of EDTA. Set-up: scale not given: the % may be the effect or the level left.
The test system of test [25] is Klebsiella pneumoniae. As to the kind of experiment: Antimicrobial activity against Klebsiella pneumoniae isolate H-1406 expressing VIM-1 and KPC-2 genes by microdilution method in presence of beta-lactamase inhibitor Tazobactam. The format is functional.
For test [26], the system named is Klebsiella pneumoniae. As to the kind of experiment: Antimicrobial activity against Klebsiella pneumoniae isolate A-1797 expressing VIM-1 and KPC-2 genes by microdilution method in presence of beta-lactamase inhibitor Tazobactam. Type of test: functional.
Test [27] has as its system Klebsiella pneumoniae. As to the kind of experiment: Antimicrobial activity against Klebsiella pneumoniae isolate T-1780 expressing VIM-1 and KPC-2 genes by microdilution method in presence of beta-lactamase inhibitor Tazobactam. Type of test: functional.
Test [28] deals with Klebsiella pneumoniae. Briefly: Antimicrobial activity against Klebsiella pneumoniae isolate A-1760 expressing VIM-1 and KPC-2 genes by microdilution method in presence of beta-lactamase inhibitor Tazobactam. The format is functional.
The subject of test [29] is Klebsiella pneumoniae. Briefly: Antimicrobial activity against Klebsiella pneumoniae isolate T-1504 expressing VIM-1 and KPC-2 genes by microdilution method in presence of beta-lactamase inhibitor Tazobactam. The format is functional.

Carbapenem-hydrolyzing beta-lactamase KPC (Klebsiella pneumoniae), sequence (Q9F663 whole entry): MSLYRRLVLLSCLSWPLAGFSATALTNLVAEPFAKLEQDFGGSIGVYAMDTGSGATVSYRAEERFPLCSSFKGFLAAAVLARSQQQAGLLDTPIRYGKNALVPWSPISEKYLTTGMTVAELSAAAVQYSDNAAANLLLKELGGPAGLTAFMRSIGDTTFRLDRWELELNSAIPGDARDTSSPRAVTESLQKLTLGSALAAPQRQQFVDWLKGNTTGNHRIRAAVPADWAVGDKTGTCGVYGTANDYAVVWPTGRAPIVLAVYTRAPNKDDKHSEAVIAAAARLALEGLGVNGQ

Consider `C[C@H]1[C@H](NC(=O)/C(=N\OC(C)(C)C(=O)O)c2csc(N)n2)C(=O)N1S(=O)(=O)O` [AZTREONAM], for which the MIC with Klebsiella pneumoniae [1] stood at 64 µg/mL (≈ 147 µM); with Klebsiella pneumoniae [2], 64 µg/mL (≈ 147 µM); in the test on Klebsiella pneumoniae [3], 64 µg/mL (≈ 147 µM); in the test on Klebsiella pneumoniae [4] it was 0.12 µg/mL (≈ 0.276 µM); against Klebsiella pneumoniae [5], 32 µg/mL (≈ 73.5 µM).

For the compound `CO/N=C(\C(=O)N[C@@H]1C(=O)N2C(C(=O)O)=C(COC(C)=O)CS[C@H]12)c1csc(N)n1` [CEFOTAXIME], the MIC with Klebsiella pneumoniae [1] is 256 µg/mL (≈ 562 µM); against Klebsiella pneumoniae [2] it was over 256 µg/mL; in the test with Klebsiella pneumoniae [3], over 256 µg/mL; against Klebsiella pneumoniae [4], over 256 µg/mL; with Klebsiella pneumoniae [5], 8 µg/mL (≈ 17.6 µM).

For `CC1(C)S[C@@H]2[C@H](NC(=O)[C@H](C(=O)O)c3ccsc3)C(=O)N2[C@H]1C(=O)O` [TICARCILLIN], the minimal inhibitory concentration (MIC) in the test with Klebsiella pneumoniae [1] is over 256 µg/mL; in the test with Klebsiella pneumoniae [3] it was over 256 µg/mL; in the test with Klebsiella pneumoniae [5] it was 256 µg/mL (≈ 666 µM); with Klebsiella pneumoniae [6], 256 µg/mL; in the test on Klebsiella pneumoniae [7], over 256 µg/mL; in the test on Klebsiella pneumoniae [8] it was over 256 µg/mL. The figures for the MIC in the test with Klebsiella pneumoniae [9] and in the test with Klebsiella pneumoniae [10] were over 256 µg/mL and 8 µg/mL, respectively.

In the case of `C[C@@H](O)[C@H]1C(=O)N2C(C(=O)O)=C(SCCNC=N)C[C@H]12` [IMIPENEM ANHYDROUS], the MIC in the test on Klebsiella pneumoniae [1] was found to be 32 µg/mL (≈ 107 µM); against Klebsiella pneumoniae [2], 2 µg/mL (≈ 6.68 µM); in the test with Klebsiella pneumoniae [3], 32 µg/mL (≈ 107 µM); against Klebsiella pneumoniae [4] it was 32 µg/mL (≈ 107 µM); against Klebsiella pneumoniae [5], 2 µg/mL (≈ 6.68 µM).

Consider `C[C@@H](O)[C@H]1C(=O)N2C(C(=O)O)=C(S[C@@H]3CN[C@H](C(=O)N(C)C)C3)[C@H](C)[C@H]12` [MEROPENEM], for which the MIC against Klebsiella pneumoniae [1] was determined as 8 µg/mL (≈ 20.9 µM); in the test with Klebsiella pneumoniae [2], 2 µg/mL (≈ 5.22 µM); against Klebsiella pneumoniae [3], 64 µg/mL (≈ 167 µM); with Klebsiella pneumoniae [4] it was 64 µg/mL (≈ 167 µM). Further, the Activity in [11] turned out to be 55 U; in test [12], 42 U; in test [13] it was 76 U; in test [14], 80 U; in [15], 31 U; in test [16] it was 55 U. The Activity in [17] was 76 U; in test [18], 57%; in test [19], 80%; in test [20], 64%; in test [21], 100%; in test [22] it was under 2%. Also, the figures for the Activity in test [23] and in [24] were 57% and 64%, respectively.

In the case of `C[C@@H](O)[C@H]1C(=O)N2C(C(=O)O)=C(S[C@@H]3CN[C@H](C(=O)Nc4cccc(C(=O)O)c4)C3)[C@H](C)[C@H]12`, the MIC in the test on Klebsiella pneumoniae [1] was 64 µg/mL (≈ 135 µM); in the test on Klebsiella pneumoniae [2], 8 µg/mL (≈ 16.8 µM); in the test on Klebsiella pneumoniae [3], over 128 µg/mL; in the test on Klebsiella pneumoniae [4], 64 µg/mL (≈ 135 µM); in the test with Klebsiella pneumoniae [5] it was 32 µg/mL (≈ 67.3 µM).

On to `CO/N=C(\C(=O)N[C@@H]1C(=O)N2C(C(=O)[O-])=C(C[N+]3(C)CCCC3)CS[C@H]12)c1csc(N)n1`, for which the minimal inhibitory concentration (MIC) in the test with Klebsiella pneumoniae [1] was 128 µg/mL (≈ 266 µM); against Klebsiella pneumoniae [2], 16 µg/mL (≈ 33.3 µM); in the test on Klebsiella pneumoniae [3] it was over 256 µg/mL; against Klebsiella pneumoniae [4], 256 µg/mL (≈ 533 µM); with Klebsiella pneumoniae [5], 16 µg/mL (≈ 33.3 µM).

For the compound `CCN1CCN(C(=O)N[C@@H](C(=O)N[C@@H]2C(=O)N3[C@@H]2SC(C)(C)[C@@H]3C(=O)O)c2ccccc2)C(=O)C1=O` [PIPERACILLIN], the MIC was over 256 µg/mL in the test on Klebsiella pneumoniae [3]; 128 µg/mL (≈ 247 µM) against Klebsiella pneumoniae [5]; over 256 µg/mL in the test with Klebsiella pneumoniae [25]; over 256 µg/mL in the test on Klebsiella pneumoniae [26]; over 256 µg/mL in the test on Klebsiella pneumoniae [27]; over 256 µg/mL with Klebsiella pneumoniae [28]. For the same compound, the minimal inhibitory concentration (MIC) in the test on Klebsiella pneumoniae [29] was found to be 64 µg/mL.

For the compound `CC(C)(O/N=C(\C(=O)N[C@@H]1C(=O)N2C(C(=O)[O-])=C(C[n+]3ccccc3)CS[C@H]12)c1csc(N)n1)C(=O)O` [CEFTAZIDIME], the minimum inhibitory concentration (MIC) was over 256 µg/mL in the test with Klebsiella pneumoniae [1]; over 256 µg/mL against Klebsiella pneumoniae [2]; over 256 µg/mL in the test with Klebsiella pneumoniae [3]; over 256 µg/mL against Klebsiella pneumoniae [4]; 16 µg/mL (≈ 29.3 µM) with Klebsiella pneumoniae [5].
